Reference: patent US10544154B2, “Opioid receptor antagonist prodrugs” (Nirsum Laboratories, Inc., priority 2017, dated 2020)

Legend:
[1] = Plasma stability, rat plasma (HPLC-MS); type: in vitro ADME; settings: 10 μM, 37° C.
Procedure: (§1) Plasma stability determination of the test compounds in rat, dog, cynomolgus monkey and human plasma is performed using HPLC-MS. For rat, incubations are carried out in 96-well polypropylene plates in 5 aliquots of 70 μL each (one for each time point). […] Five time points are analyzed (0, 15, 120, 480 and 1440 min). For dog, monkey and human, test compounds (2 μM, final solvent concentration 1%) were also incubated at 37° C. and analyzed at five time points (0, 10, 30, 60 and 120 min). All incubations are performed in duplicates. The samples are analyzed by HPLC-MS. The percentage of parent compound remaining after incubation in plasma is determined.

[2] = Polymorph screening of solid state drug substances; type: physicochemical; settings: for Dry method and appearance: after stirring at 50 °C for 72 hours; for XRPD results (Dried): dried solid
[3] = Solubility determination in oil (cottonseed oil, sesame oil), HPLC
Procedure: A known amount of test substance (˜40 mg) was weighed into the vial, 100 μL of oil was added and heated to 60° C. and then system was slurried to reach equilibrium. […] Then the clear solution was placed at room temperature (25° C.) for 24 h to confirm whether there was solid precipitation. Extra oil was added into the vial once compound precipitated out and then the system was re-equilibrated at 1000 rpm at room temperature (25° C.). Final concentration was determined by HPLC method as described below in Table 6a and 6b.

[4] = Plasma stability, dog plasma (HPLC-MS); type: in vitro ADME; settings: 2 μM, 37° C.
Procedure: as §1

[5] = Plasma stability, cynomolgus monkey plasma (HPLC-MS); type: in vitro ADME; settings: 2 μM, 37° C.
Procedure: as §1, with “For dog, monkey and human, test compounds (2 μM, final solvent concentration 1%) were also incubated at 37° C. and analyzed at five time points (0, 10, 30, 60 and 120 min).” left out

[6] = Plasma stability, human plasma (HPLC-MS); type: in vitro ADME; settings: 2 μM, 37° C., 0 min
Procedure: as §1, with “For dog, monkey and human, test compounds (2 μM, final solvent concentration 1%) were also incubated at 37° C. and analyzed at five time points (0, 10, 30, 60 and 120 min).” left out

[7] = Heating Temp. 60 °C, Obs. Temp. 40 °C
[8] = Heating Temp. 60 °C, Obs. Temp. 25 °C

Row | SMILES | % remaining at time point in minutes, 0 min [1] [%] | Dry method and appearance ([2]; Acetone) | XRPD results (Dried) ([2]; Acetone) | Dry method and appearance ([2]; EtOAc) | XRPD results (Dried) ([2]; EtOAc) | Dry method and appearance ([2]; Heptane) | XRPD results (Dried) ([2]; Heptane) | Dry method and appearance ([2]; Isopropanol) | XRPD results (Dried) ([2]; Isopropanol) | Dry method and appearance ([2]; MTBE) | XRPD results (Dried) ([2]; MTBE) | also measured
1 | CCCCCCCCCCCCOC(=O)Oc1ccc2c3c1O[C@H]1C(=O)CC[C@@]4(O)C(C2)N(CC2CC2)CC[C@]314 [Compound 11, (4aS,7aR,12bS)-3-(cyclopropylmethyl)-4a-hydroxy-7-oxo-2,3,4,4a,5,6,7,7a-octahydro-1H-4,12-methanobenzofuro[3,2-e]isoquinolin-9-yl dodecyl carbonate] | 100 | Evaporation/white powder | Pattern A | Evaporation/white powder | Pattern A | Evaporation/white powder | Pattern B | Evaporation/white powder | Pattern A | Evaporation/white powder | Pattern A | % remaining at time point in minutes, 15 min [1]: 0.7%; % remaining at time point in minutes, 120 min ([1]; 120 min): 0.3%; % remaining at time point in minutes, 480 min [1]: 0.2%; % remaining at time point in minutes, 1440 min [1]: 0%
2 | C=C1CC[C@@]2(O)C3Cc4ccc(OC(=O)CCCCCCCCCCCCCCCCCCCCC)c5c4[C@@]2(CCN3CC2CC2)[C@H]1O5 [Compound 14, (4aS,7aS,12bS)-3-(cyclopropylmethyl)-4a-hydroxy-7-methylene-2,3,4,4a,5,6,7,7a-octahydro-1H-4,12-methanobenzofuro[3,2-e]isoquinolin-9-yl docosanoate] | 100 | Evaporation/white powder | Pattern A | Evaporation/white powder | Pattern A | Centrifugation/white powder | Pattern B | Evaporation/white powder | Pattern A | Evaporation/white powder | Pattern A | % remaining at time point in minutes, 15 min [1]: 94%; % remaining at time point in minutes, 1440 min [1]: 120%; Visual observation RT ([2]; Acetone, target conc. 100 mg/ml, RT): Slurry
3 | C=C1CC[C@@]2(O)C3Cc4ccc(OC(=O)OCCCCCCCCCCCCCCCC)c5c4[C@@]2(CCN3CC2CC2)[C@H]1O5 [Compound 19, (4aS,7aS,12bS)-3-(cyclopropylmethyl)-4a-hydroxy-7-methylene-2,3,4,4a,5,6,7,7a-octahydro-1H-4,12-methanobenzofuro[3,2-e]isoquinolin-9-yl hexadecyl carbonate] | 100 | Evaporation/white powder | Pattern A | Evaporation/white powder | Pattern A | Evaporation/white powder | Pattern A | Evaporation/white powder | Pattern A | Evaporation/white powder | Pattern A | 
4 | CCCCCCCCCCCCCCCCOC(=O)Oc1ccc2c3c1O[C@H]1C(=O)CC[C@@]4(O)C(C2)N(CC2CC2)CC[C@]314 [Compound 21, (4aS,7aR,12bS)-3-(cyclopropylmethyl)-4a-hydroxy-7-oxo-2,3,4,4a,5,6,7,7a-octahydro-1H-4,12-methanobenzofuro[3,2-e]isoquinolin-9-yl hexadecyl carbonate] | 100 | Evaporation/white powder | Pattern A | Evaporation/white powder | Pattern A | Evaporation/white powder | Pattern A | Evaporation/white powder | Pattern A | Evaporation/white powder | Pattern A | Approximate Solubility in Excipient: Cottonseed oil [3, 7]: 101 to 134.8 mg/mL; Approximate Solubility in Excipient: Sesame oil [3, 7]: 101 to 134.5 mg/mL
5 | CCCCCCCC/C=C/CCCCCCCC(=O)OCOc1ccc2c3c1O[C@H]1C(=O)CC[C@@]4(O)C(C2)N(CC2CC2)CC[C@]314 [Compound 26, (((4aS,7aR,12bS)-3-(cyclopropylmethyl)-4a-hydroxy-7-oxo-2,3,4,4a,5,6,7,7a-octahydro-1H-4,12-methanobenzofuro[3,2-e]isoquinolin-9-yl)oxy)methyl (E)-octadec-9-enoate] |  |  |  |  |  |  |  |  |  |  |  | Approximate Solubility in Excipient: Cottonseed oil [3, 8]: 204.3 to 239 mg/mL
6 | C=C1CC[C@@]2(O)C3Cc4ccc(OC(=O)OCCCCCCCCCCCCCC)c5c4[C@@]2(CCN3CC2CC2)[C@H]1O5 [Compound 31, (4aS,7aS,12bS)-3-(cyclopropylmethyl)-4a-hydroxy-7-methylene-2,3,4,4a,5,6,7,7a-octahydro-1H-4,12-methanobenzofuro[3,2-e]isoquinolin-9-yl tetradecyl carbonate] | 100 | Evaporation/white powder | Pattern A | Evaporation/white powder | Pattern A | Evaporation/white powder | Pattern A | Evaporation/white powder | Pattern A | Evaporation/white powder | Pattern A | 
7 | C=C1CC[C@@]2(O)C3Cc4ccc(OC(=O)CCCCCCC/C=C\C/C=C\CCCCC)c5c4[C@@]2(CCN3CC2CC2)[C@H]1O5 [Compound 37, (4aS,7aS,12bS)-3-(cyclopropylmethyl)-4a-hydroxy-7-methylene-2,3,4,4a,5,6,7,7a-octahydro-1H-4,12-methanobenzofuro[3,2-e]isoquinolin-9-yl (9Z,12Z)-octadeca-9,12-dienoate] |  |  |  |  |  |  |  |  |  |  |  | Approximate Solubility in Excipient: Cottonseed oil [3, 8]: 68.5 to 82 mg/mL
8 | C=C1CC[C@@]2(O)C3Cc4ccc(OC(=O)CCC5CCCC5)c5c4[C@@]2(CCN3CC2CC2)[C@H]1O5 [Compound 39, (4aS,7aS,12bS)-3-(cyclopropylmethyl)-4a-hydroxy-7-methylene-2,3,4,4a,5,6,7,7a-octahydro-1H-4,12-methanobenzofuro[3,2-e]isoquinolin-9-yl 3-cyclopentylpropanoate] |  |  |  |  |  |  |  |  |  |  |  | Approximate Solubility in Excipient: Cottonseed oil ([3]; Heating Temp. 40 °C, Obs. Temp. 40 °C): 225 to 402.2 mg/mL
9 | CCCCC/C=C\C/C=C\CCCCCCCC(=O)Oc1ccc2c3c1O[C@H]1C(=O)CC[C@@]4(O)C(C2)N(CC2CC2)CC[C@]314 [Compound 53, (4aS,7aR,12bS)-3-(cyclopropylmethyl)-4a-hydroxy-7-oxo-2,3,4,4a,5,6,7,7a-octahydro-1H-4,12-methanobenzofuro[3,2-e]isoquinolin-9-yl (9Z,12Z)-octadeca-9,12-di.enoate] | 100 |  |  |  |  |  |  |  |  |  |  | % remaining at time point in minutes, 480 min [1]: 7.3%; % remaining at time point in minutes, 1440 min [1]: 1.9%; Approximate Solubility in Excipient: Cottonseed oil [3, 8]: >408.5 mg/mL; Approximate Solubility in Excipient: Sesame oil [3, 8]: >401.9 mg/mL; Approximate Solubility in Excipient: Sesame oil [3, 7]: >406.3 mg/mL
10 | CCCCCCCCCCCCCCCC(=O)Oc1ccc2c3c1O[C@H]1C(=O)CC[C@@]4(O)C(C2)N(CC2CC2)CC[C@]314 [Compound 55, (4aS,7aR,12bS)-3-(cyclopropylmethyl)-4a-hydroxy-7-oxo-2,3,4,4a,5,6,7,7a-octahydro-1H-4,12-methanobenzofuro[3,2-e]isoquinolin-9-yl palmitate] | 100 | Evaporation/white powder | Pattern B | Evaporation/white powder | Pattern B | Evaporation/white powder | Pattern B | Evaporation/white powder | Pattern B | Evaporation/white powder | Pattern B | 
11 | CCCCCCCCCCCCCCCC(=O)OC1CCCn2c1nc(C)c(CCN1CCC(c3noc4cc(F)ccc34)CC1)c2=O (stereo not shown) [Paliperidone palmitate, reference compound] |  |  |  |  |  |  |  |  |  |  |  | % remaining at time point in minutes, 0 min [4]: 100%; % remaining at time point in minutes, 0 min ([5]; 0 min): 100%; % remaining at time point in minutes, 15 min ([5]; 15 min): 92%; % remaining at time point in minutes, 0 min [6]: 100%
